Drawing on patent publication US12454520B2, “Protein degraders and uses thereof” (Kymera Therapeutics, Inc., priority 2018, dated 2025), this text covers Dmax for 42 molecules.

This test deals with T1, SMARCA2 (Homo sapiens, UniProt P51531).
T1 construct: endogenous in cells; host or cells: NCI-H1299
T1 sequence (P51531 whole entry): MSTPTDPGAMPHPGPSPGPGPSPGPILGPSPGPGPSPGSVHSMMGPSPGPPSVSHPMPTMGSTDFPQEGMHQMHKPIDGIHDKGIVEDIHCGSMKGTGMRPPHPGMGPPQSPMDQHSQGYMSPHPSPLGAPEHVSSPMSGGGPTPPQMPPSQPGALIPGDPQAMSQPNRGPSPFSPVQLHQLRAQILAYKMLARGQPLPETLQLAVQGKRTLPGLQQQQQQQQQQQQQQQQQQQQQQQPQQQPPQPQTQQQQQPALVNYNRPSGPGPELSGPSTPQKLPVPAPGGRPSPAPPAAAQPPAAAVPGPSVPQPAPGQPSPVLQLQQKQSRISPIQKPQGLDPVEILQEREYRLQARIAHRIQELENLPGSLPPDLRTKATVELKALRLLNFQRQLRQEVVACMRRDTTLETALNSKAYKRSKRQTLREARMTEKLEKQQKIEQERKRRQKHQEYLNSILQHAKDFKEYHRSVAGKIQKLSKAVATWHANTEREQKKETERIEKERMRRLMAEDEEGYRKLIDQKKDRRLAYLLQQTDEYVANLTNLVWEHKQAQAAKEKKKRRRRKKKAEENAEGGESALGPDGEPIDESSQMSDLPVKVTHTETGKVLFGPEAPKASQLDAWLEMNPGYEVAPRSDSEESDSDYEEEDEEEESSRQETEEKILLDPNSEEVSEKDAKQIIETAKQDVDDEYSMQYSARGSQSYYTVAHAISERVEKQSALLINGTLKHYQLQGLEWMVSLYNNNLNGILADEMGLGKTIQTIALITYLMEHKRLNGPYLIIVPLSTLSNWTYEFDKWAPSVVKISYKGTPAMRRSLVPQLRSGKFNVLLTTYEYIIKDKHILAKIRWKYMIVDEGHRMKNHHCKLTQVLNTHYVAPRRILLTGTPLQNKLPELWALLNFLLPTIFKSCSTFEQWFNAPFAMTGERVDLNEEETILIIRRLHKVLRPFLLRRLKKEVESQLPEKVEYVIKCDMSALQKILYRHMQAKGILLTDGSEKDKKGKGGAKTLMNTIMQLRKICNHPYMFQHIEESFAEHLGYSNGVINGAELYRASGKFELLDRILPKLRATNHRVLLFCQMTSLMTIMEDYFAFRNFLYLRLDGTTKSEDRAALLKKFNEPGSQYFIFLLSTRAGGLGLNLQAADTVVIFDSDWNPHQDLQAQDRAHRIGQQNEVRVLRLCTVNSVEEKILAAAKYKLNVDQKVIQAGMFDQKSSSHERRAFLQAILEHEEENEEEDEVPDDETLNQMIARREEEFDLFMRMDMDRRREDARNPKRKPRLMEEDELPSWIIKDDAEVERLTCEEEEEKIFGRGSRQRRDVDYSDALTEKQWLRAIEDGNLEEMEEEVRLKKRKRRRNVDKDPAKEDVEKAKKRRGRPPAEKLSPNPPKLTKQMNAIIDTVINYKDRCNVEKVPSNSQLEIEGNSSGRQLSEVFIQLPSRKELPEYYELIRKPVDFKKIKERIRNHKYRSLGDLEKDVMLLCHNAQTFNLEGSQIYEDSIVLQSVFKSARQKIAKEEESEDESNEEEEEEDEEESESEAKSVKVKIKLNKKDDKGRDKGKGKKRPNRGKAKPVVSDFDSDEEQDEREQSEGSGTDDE
The test is described as follows: MSD SMARCA2 degradation in NCI-H1299 cell line. The test is classed as cell-based. Conditions: NCI-H1299 cells, percentage of SMARCA2 degradation after 24 hours. How it is done:
Example 14. MSD SMARCA2 Degration in NCI-H1299 Cell Line
Cell Culture: Cells were cultured in exponential growth phase.
Compound Preparation and Treatment: NCI-H1299 cells were seeded into the 96-well plate at 4.0*10^4 cells per 100ul per well. Incubate the plate in the incubator overnight. The next day, compounds were diluted to designed stock concentration by TECAN, then perform a 3 fold, 9-point dilution via transferring 15 uL compound into 30 μL DMSO using Apricot. 200 nL diluted compound from compound source plate were transferred into the 96-intermediate plate as designated by using Echo550, followed with 100 ul culture medium to make the 2× compound solution. Cell plate were changed with 80 ul of fresh culture medium and 80 ul of 2× compound solution was added into the well to achieve the final designed concentration. Cell plate was then shaken at 720 rpm for 5 min and incubated for 24 hours in the incubator.
Sample Preparation: Media was aspirated from the cultures and the plate was washed with PBS twice. 60 ul of pre-chilled PIPA lysis buffer (Boston BioProducts BP-115D) with protease inhibitor were directly added into the well to lyze the cells for 20 minutes at 4° C. Cell lysates were collected.
MSD Procedure: The MSD plate was coated with 40 ul cell lysate and incubated at 4° C. overnight. The next day, the MSD coated bare plate was washed 3 times with 150 ul 1×TBST per well, blocked with 150 ul of blocking buffer per well, and shaken for 1 hour at RT, 600 rpm. Blocking buffer was 3% Blocker A in TBST. MSD plate was then washed 3 times with 150 ul 1×TBST per well and Primary Detection antibody (Rabbit anti-SMARCA2/BRM antibody, 100 μg/ml, ab223735) was added to a final [conc.]: 0.3 ug/ml, 25ul/well and shaken for 1 hour at RT, 600 rpm. Antibody was prepared in Antibody Detection buffer (1% Blocker A in 1×TBST). The MSD plate was then washed 3 times with 150 ul 1×TBST per well. Secondary Detection antibody (SULFO-TAG anti-species antibody) was then added to a final [conc.]: 1 μg/ml, 25 ul/well, and shaken for 1 hour at RT, 600 rpm. Antibodies were prepared in Antibody Detection buffer (1% Blocker A in 1×TBST). MSD plate was washed 3 times with 150 ul 1×TBST per well and 2×MSD reading buffer was added, 150 ul per well, and diluted from 4× with water. MSD instrument was then read.
Data Analysis: The percentage of relative level of SMARCA2 level was calculated following equation below.
LC: A2780, SMARCA2 negative cells. HC: NCI-H1299 cells treated with DMSO.
The letter codes for the percentage of SMARCA2 degradation after 24 hours (Dmax %) include: A (>90% degradation), B (>70-90% degradation), C (50-70% degradation), and D (<50% degradation).
The Dmax is the largest share of the target that was removed. Lower therefore signals a partial loss of target. In turn, `Nc1nnc(-c2ccccc2O)cc1-c1ccc(CN2CCN(CCCCCCCc3ccc4c(c3)c3cccnc3n4C3CCC(=O)NC3=O)CC2)cc1` (stereo not drawn) [I-75] gave a Dmax of 70 to 90%. Then `Nc1nnc(-c2ccccc2O)cc1-c1ccc(CN2CCN(CCCCCCCCc3ccc4c(c3)c3cccnc3n4C3CCC(=O)NC3=O)CC2)cc1` (stereo not drawn) [I-76], with more than 90%.

Take `Nc1nnc(-c2ccccc2O)cc1-c1ccc(CN2CCN(CCCCCCCCCc3ccc4c(c3)c3cccnc3n4C3CCC(=O)NC3=O)CC2)cc1` (stereo not drawn) [I-77]: the Dmax is more than 90%.

On to `Nc1nnc(-c2ccccc2O)cc1-c1ccc(CN2CCN(CCCCCc3cccc4c3c3cccnc3n4C3CCC(=O)NC3=O)CC2)cc1` (stereo not drawn) [I-78], for which the maximal degradation (Dmax) fell in the range of 50 to 70%. The value for `Nc1nnc(-c2ccccc2O)cc1-c1ccc(CN2CCN(CCCCCCc3cccc4c3c3cccnc3n4C3CCC(=O)NC3=O)CC2)cc1` (stereo not drawn) [I-79] was 50 to 70%; that for `Nc1nnc(-c2ccccc2O)cc1-c1ccc(CN2CCN(CCCCCCCc3cccc4c3c3cccnc3n4C3CCC(=O)NC3=O)CC2)cc1` (stereo not drawn) [I-80] was more than 90%. The value for `Nc1nnc(-c2ccccc2O)cc1-c1ccc(CN2CCN(CCCCCc3ccnc4c3c3ccccc3n4C3CCC(=O)NC3=O)CC2)cc1` (stereo not drawn) [I-81] was 70 to 90%; that for `Nc1nnc(-c2ccccc2O)cc1-c1ccc(CN2CCN(CCCCCCc3ccnc4c3c3ccccc3n4C3CCC(=O)NC3=O)CC2)cc1` (stereo not drawn) [I-82] was 70 to 90%; that for `Nc1nnc(-c2ccccc2O)cc1-c1ccc(CN2CCN(CCCCCCCc3ccnc4c3c3ccccc3n4C3CCC(=O)NC3=O)CC2)cc1` (stereo not drawn) [I-83] was 70 to 90%. In turn, `Nc1nnc(-c2ccccc2O)cc1-c1ccc(CN2CCN(CCCCOCCCc3ccc4c(c3)c3cccnc3n4C3CCC(=O)NC3=O)CC2)cc1` (stereo not drawn) [I-84] returned a Dmax of 50 to 70%. `CN(Cc1ccc(N2CCN(c3cc(-c4ccccc4O)nnc3N)CC2)cc1)CC1CCN(Cc2ccc3c(c2)c2cccnc2n3C2CCC(=O)NC2=O)CC1` (stereo not drawn) [I-85] returned a Dmax of more than 90%. In turn, `Nc1nnc(-c2ccccc2O)cc1-c1ccc(CN2CCN(CCCc3ccc4c(c3)c3cccnc3n4C3CCC(=O)NC3=O)CC2)cc1` (stereo not drawn) [I-86] registered a Dmax of less than 50%. Then `CN(Cc1ccc(N2CCN(c3cc(-c4ccccc4O)nnc3N)CC2)cc1)CC1CCN(Cc2cccc3c2c2cccnc2n3C2CCC(=O)NC2=O)CC1` (stereo not drawn) [I-87], with less than 50%; and `Nc1nnc(-c2ccccc2O)cc1-c1ccc(CNCCOCCOCCCc2cnc3c(c2)c2ccccc2n3C2CCC(=O)NC2=O)cc1` (stereo not drawn) [I-88], with 70 to 90%; and `Nc1nnc(-c2ccccc2O)cc1-c1cnn(CC2CCN(CCCCOCCCc3cccc4c3c3cccnc3n4C3CCC(=O)NC3=O)CC2)c1` (stereo not drawn) [I-89], with less than 50%. For `Nc1nnc(-c2ccccc2O)cc1N1CCN(Cc2cccc3c2c2cccnc2n3C2CCC(=O)NC2=O)CC1` (stereo not drawn) [I-90], the Dmax was less than 50%. The value for `Nc1nnc(-c2ccccc2O)cc1N1CCN(CCCc2cccc3c2c2cccnc2n3C2CCC(=O)NC2=O)CC1` (stereo not drawn) [I-91] was less than 50%; that for `Nc1nnc(-c2ccccc2O)cc1N1CCN(CCCCCc2cccc3c2c2cccnc2n3C2CCC(=O)NC2=O)CC1` (stereo not drawn) [I-92] was less than 50%.

`CN(Cc1ccc(N2CCN(c3cc(-c4ccccc4O)nnc3N)CC2)cc1)Cc1cccc2c1c1cccnc1n2C1CCC(=O)NC1=O` (stereo not drawn) [I-93] yielded a Dmax of less than 50%. The molecule `CN(CCCc1cccc2c1c1cccnc1n2C1CCC(=O)NC1=O)Cc1ccc(N2CCN(c3cc(-c4ccccc4O)nnc3N)CC2)cc1` (stereo not drawn) [I-94] gave a Dmax of 50 to 70%.

With `CN(CCCCCc1cccc2c1c1cccnc1n2C1CCC(=O)NC1=O)Cc1ccc(N2CCN(c3cc(-c4ccccc4O)nnc3N)CC2)cc1` (stereo not drawn) [I-95], the Dmax was less than 50%. Then `Nc1nnc(-c2ccccc2O)cc1-c1cnn(CC2CCN(Cc3cccc4c3c3cccnc3n4C3CCC(=O)NC3=O)CC2)c1` (stereo not drawn) [I-96], with 50 to 70%. Then `Nc1nnc(-c2ccccc2O)cc1-c1cnn(CC2CCN(CCCc3cccc4c3c3cccnc3n4C3CCC(=O)NC3=O)CC2)c1` (stereo not drawn) [I-97], with more than 90%. Take `Nc1nnc(-c2ccccc2O)cc1-c1cnn(CC2CCN(CCCCCc3cccc4c3c3cccnc3n4C3CCC(=O)NC3=O)CC2)c1` (stereo not drawn) [I-98]: the Dmax is more than 90%.

`Nc1nnc(-c2ccccc2O)cc1N1CCN(CCCc2ccnc3c2c2ccccc2n3C2CCC(=O)NC2=O)CC1` (stereo not drawn) [I-99]: the greatest degradation seen (Dmax) is less than 50%. In turn, `Nc1nnc(-c2ccccc2O)cc1N1CCN(CCCCCc2ccnc3c2c2ccccc2n3C2CCC(=O)NC2=O)CC1` (stereo not drawn) [I-100] showed a Dmax of less than 50%. The value for `CN(CCCc1ccnc2c1c1ccccc1n2C1CCC(=O)NC1=O)Cc1ccc(N2CCN(c3cc(-c4ccccc4O)nnc3N)CC2)cc1` (stereo not drawn) [I-101] was less than 50%; that for `CN(CCCCCc1ccnc2c1c1ccccc1n2C1CCC(=O)NC1=O)Cc1ccc(N2CCN(c3cc(-c4ccccc4O)nnc3N)CC2)cc1` (stereo not drawn) [I-102] was 50 to 70%; that for `Nc1nnc(-c2ccccc2O)cc1-c1cnn(CC2CCN(CCCc3ccnc4c3c3ccccc3n4C3CCC(=O)NC3=O)CC2)c1` (stereo not drawn) [I-103] was more than 90%. `Nc1nnc(-c2ccccc2O)cc1-c1cnn(CC2CCN(CCCCCc3ccnc4c3c3ccccc3n4C3CCC(=O)NC3=O)CC2)c1` (stereo not drawn) [I-104] registered a Dmax of more than 90%.

`Nc1nnc(-c2ccccc2O)cc1-c1ccc(CN2CCN(Cc3ccc4c(c3)c3cccnc3n4C3CCC(=O)NC3=O)CC2)cc1` (stereo not drawn) [I-105] showed a Dmax of less than 50%. Take `Nc1nnc(-c2ccccc2O)cc1-c1cnn(C2CCN(CCCCc3ccc4c(c3)c3cccnc3n4C3CCC(=O)NC3=O)CC2)c1` (stereo not drawn) [I-133]: the Dmax is more than 90%. The value for `Nc1nnc(-c2ccccc2O)cc1-c1cnn(CC2CCN(CCCCc3ccc4c(c3)c3cccnc3n4C3CCC(=O)NC3=O)CC2)c1` (stereo not drawn) [I-134] was 70 to 90%; that for `Nc1nnc(-c2ccccc2O)cc1-c1cnn(C2CCN(CCCCCc3ccc4c(c3)c3cccnc3n4C3CCC(=O)NC3=O)CC2)c1` (stereo not drawn) [I-135] was 50 to 70%. The molecule `Nc1nnc(-c2ccccc2O)cc1-c1cnn(C2CCN(CCCCCc3ccnc4c3c3ccccc3n4C3CCC(=O)NC3=O)CC2)c1` (stereo not drawn) [I-137] yielded a Dmax of more than 90%. `Nc1nnc(-c2ccccc2O)cc1N1CC2CCC(C1)N2c1ncc(C2CCN(CCCc3ccc4c(c3)c3cccnc3n4C3CCC(=O)NC3=O)CC2)cn1` (stereo not drawn) [I-138, 3-[6-[3-[4-[2-[3-[3-amino-6-(2-hydroxyphenyl)pyridazin-4-yl]-3,8-diazabicyclo[3.2.1]octan-8-yl]pyrimidin-5-yl]-1-piperidyl]propyl]pyrido[2,3-b]indol-9-yl]piperidine-2,6-dione] came in with a Dmax of more than 90%. The value for `Nc1nnc(-c2ccccc2O)cc1-c1cnn(CC2COC(CCCCc3ccc4c(c3)c3cccnc3n4C3CCC(=O)NC3=O)OC2)c1` (stereo not drawn) [I-140, 3-(6-(4-(5-((4-(3-amino-6-(2-hydroxyphenyl)pyridazin-4-yl)-1H-pyrazol-1-yl)methyl)-1,3-dioxan-2-yl)butyl)-9H-pyrido[2,3-b]indol-9-yl)piperidine-2,6-dione] was less than 50%; that for `Nc1nnc(-c2ccccc2O)cc1-c1cnn([C@H]2CCCN(CCCc3ccc4c(c3)c3cccnc3n4C3CCC(=O)NC3=O)C2)c1` (stereo partly drawn) [I-141, 3-[6-[3-[(3S)-3-[4-[3-amino-6-(2-hydroxyphenyl)pyridazin-4-yl]pyrazol-1-yl]-1-piperidyl]propyl]pyrido[2,3-b]indol-9-yl]piperidine-2,6-dione] was 70 to 90%; that for `Nc1nnc(-c2ccccc2O)cc1-c1cnn(C2CCCN(CCCc3ccc4c(c3)c3cccnc3n4C3CCC(=O)NC3=O)C2)c1` (stereo not drawn) [I-142] was less than 50%. Turning to `Nc1nnc(-c2ccccc2O)cc1-c1cnn(C2CCCN(CCCc3ccnc4c3c3ccccc3n4C3CCC(=O)NC3=O)C2)c1` (stereo not drawn) [I-143], the Dmax was more than 90%.

`Nc1nnc(-c2ccccc2O)cc1-c1cnn(C2CCN(C3CCC(c4ccc5c(c4)c4cccnc4n5C4CCC(=O)NC4=O)CC3)CC2)c1` (stereo not drawn) [I-144] gave a Dmax of more than 90%. Then `Nc1nnc(-c2ccccc2O)cc1N1CC2CCC(C1)N2c1ncc(C2CCN(CCCc3ccnc4c3c3ccccc3n4C3CCC(=O)NC3=O)CC2)cn1` (stereo not drawn) [I-145, 3-(4-(3-(4-(2-(3-(3-amino-6-(2-hydroxyphenyl)pyridazin-4-yl)-3,8-diazabicyclo[3.2.1]octan-8-yl)pyrimidin-5-yl)piperidin-1-yl)propyl)-9H-pyrido[2,3-b]indol-9-yl)piperidine-2,6-dione], with more than 90%.
